# Reference: PMC12473123, “Structure–Function Insights into Quinuclidine-3-One BisQACs: Synthesis, Modulation of Bacterial Resistance, Structure–Activity Relationship, and Biological Profiling” (Pharmaceuticals, 2025)
# Tests used:
# [1] = system: Staphylococcus aureus ATCC 25923; test: Broth microdilution MIC; format: cell-based; conditions: for MIC: Staphylococcus aureus, ATCC25923, read-out: Minimum Inhibitory Concentrations (MIC)
# [2] = system: Staphylococcus aureus ATCC 33591 (methicillin-resistant); test: Broth microdilution MIC; format: cell-based; conditions: for MIC: Staphylococcus aureus, ATCC33591, read-out: Minimum Inhibitory Concentrations (MIC)
# [3] = system: Staphylococcus aureus Clinical/MRSA; test: Broth microdilution MIC; format: cell-based; conditions: for MIC: Staphylococcus aureus, MRSA, read-out: Minimum Inhibitory Concentrations (MIC)
# [4] = system: Bacillus cereus ATCC 14579; test: Broth microdilution MIC; format: cell-based; conditions: ATCC14579, read-out: Minimum Inhibitory Concentrations (MIC), Bacillus cereus ATCC 14579
# [5] = system: Listeria monocytogenes ATCC 7644; test: Broth microdilution MIC; format: cell-based; conditions: Listeria monocytogenes, ATCC7644, read-out: Minimum Inhibitory Concentrations (MIC), Listeria monocytogenes ATCC 7644
# [6] = system: Enterococcus faecalis ATCC 29212; test: Broth microdilution MIC; format: cell-based; conditions: for MIC: Enterococcus faecalis, ATCC29212, read-out: Minimum Inhibitory Concentrations (MIC), Enterococcus faecalis ATCC 29212
# [7] = system: Escherichia coli ATCC 25922; test: Broth microdilution MIC; format: cell-based; conditions: for MIC: Escherichia coli, ATCC25922, read-out: Minimum Inhibitory Concentrations (MIC)
# [8] = system: Salmonella enterica (food isolate); test: Broth microdilution MIC; format: cell-based; conditions: read-out: Minimum Inhibitory Concentrations (MIC)
# [9] = system: Pseudomonas aeruginosa ATCC 27853; test: Broth microdilution MIC; format: cell-based; conditions: Pseudomonas aeruginosa, ATCC27853, read-out: Minimum Inhibitory Concentrations (MIC)
# [10] = system: Staphylococcus aureus ATCC 25923; test: Biofilm inhibition assay (crystal violet); format: cell-based
# Description: (§1) The ability of the candidate compounds to inhibit biofilm formation was evaluated by determining the minimum biofilm inhibitory concentration (MBIC) against the biofilm-forming strains Staphylococcus aureus ATCC 25923 and Listeria monocytogenes ATCC 7644. Overnight bacterial cultures were diluted in fresh, pre-warmed Mueller–Hinton broth (MHB) and incubated at 37 °C with constant shaking at 220 rpm. Once the cultures reached the exponential growth phase (OD600 = 0.3–0.5), they were standardized to a final concentration of 4 × 10^6 CFU/mL.
# (§2) Plates were incubated at 37 °C for 24 to 48 h, depending on the bacterial strain. After incubation, the planktonic cells were carefully aspirated to preserve the integrity of the biofilm layer. Wells were gently rinsed with sterile ultrapure Milli-Q water and air-dried at 60 °C for 1 h to fix the biofilms. Biofilm formation was quantified using a crystal violet (CV) staining method. Wells were stained with 100 µL of 0.1% CV solution and incubated at room temperature for 1 h. Excess dye was removed by rinsing with sterile ultrapure Milli-Q water, followed by air-drying. Bound CV was solubilized with 100 µL of 70% ethanol and incubated for 30 min. The solubilized dye was transferred to a fresh plate, and absorbance was measured at 595 nm using a microplate reader (Bio-Tek EL808, Winooski, VT, USA). Absorbance values were directly proportional to biofilm biomass. Untreated bacterial cultures served as positive controls for biofilm formation, while sterile MHB served as the negative control.
# [11] = system: Listeria monocytogenes ATCC 7644; test: Biofilm inhibition assay (crystal violet); format: cell-based; conditions: L. monocytogenes
# Description: as §1
# as §2, with “Aliquots (50 µL) of the standardized bacterial suspension were inoculated into 96-well microtiter plates containing the test compounds at final concentrations of 100, 50, 25, and 12.5 µg/mL. Plates” for “Plates”
# HEK293 cells = test: Cytotoxicity MTS assay; format: cell-based, human; conditions: HEK293 cells, 48 h, MTS; read-out: IC50 HEK293
# Description: (§3) The cytotoxic potential of the selected drug candidates was evaluated using the CellTiter 96® AQueous One Solution Cell Proliferation Assay (Promega, Madison, WI, USA), following the manufacturer’s protocol. Human cell lines RPE1 and HEK293 were cultured at 37 °C in a humidified incubator with 5% CO2. Test compounds were dissolved in the appropriate growth medium and serially diluted across a range of concentrations in 96-well microtiter plates. Each well was seeded with 5000 cells and incubated for 48 h under standard culture conditions. Following this incubation period, 20 µL of MTS reagent was added to each well, and the plates were further incubated for 3 h to allow for color development. Absorbance was measured at 490 nm using a microplate reader to determine cell viability. Cytotoxicity was quantified as the half-maximal inhibitory concentration (IC50), defined as the concentration of compound that reduced cell viability by 50%. […] IC50 values were calculated using GraFit 6.0 software by plotting compound concentration against absorbance and fitting the data to a sigmoidal dose–response curve.
# RPE1 cells = test: Cytotoxicity MTS assay; format: cell-based, human; conditions: RPE1 cells, 48 h, MTS; read-out: IC50 RPE1
# Description: as §3
SMILES,MIC [1] [µM],MIC [2] [µM],MIC [3] [µM],MIC [4] [µM],MIC [5] [µM],MIC [6] [µM],MIC [7] [µM],MIC [8] [µM],MIC [9] [µM],further results
"CCCCCCCCCCCCNC1C[N+]2(CCC[N+]34CCC(CC3)C(NCCCCCCCCCCCC)C4)CCC1CC2 (racemic) [2(QC12)3, (±)-1,1′-(Propane-1,3-diyl) bis(3-(dodecylamino)quinuclidinium) dibromide]",75,75,> 75,> 75,38,> 75,> 75,75,> 75,–
"CCCCCCCCCCCCNC1C[N+]2(CCCC[N+]34CCC(CC3)C(NCCCCCCCCCCCC)C4)CCC1CC2 (racemic) [2(QC12)4, (±)-1,1′-(Butane-1,4-diyl) bis(3-(dodecylamino)quinuclidinium) dibromide]",> 75,75,> 75,> 75,75,> 75,> 75,> 75,> 75,–
"CCCCCCCCCCCCNC1C[N+]2(CCCCCC[N+]34CCC(CC3)C(NCCCCCCCCCCCC)C4)CCC1CC2 (racemic) [2(QC12)6, (±)-1,1′-(Hexane-1,6-diyl) bis(3-(dodecylamino)quinuclidinium) dibromide]",75,19,> 75,> 75,38,75,38,> 75,> 75,–
"CCCCCCCCCCCCCCNC1C[N+]2(CCC[N+]34CCC(CC3)C(NCCCCCCCCCCCCCC)C4)CCC1CC2 (racemic) [2(QC14)3, (±)-1,1′-(Propane-1,3-diyl) bis(3-(tetradecylamino)quinuclidinium) dibromide]",75,75,> 75,> 75,38,> 75,> 75,> 75,> 75,–
"CCCCCCCCCCCCCCNC1C[N+]2(CCCC[N+]34CCC(CC3)C(NCCCCCCCCCCCCCC)C4)CCC1CC2 (racemic) [2(QC14)4, (±)-1,1′-(Butane-1,4-diyl) bis(3-(tetradecylamino)quinuclidinium) dibromide]",> 75,75,> 75,> 75,> 75,> 75,> 75,> 75,> 75,–
"O=C1C[N+]2(CCC[N+]34CCC(CC3)C(=O)C4)CCC1CC2 [2(QO)3, 1,1′-(Propane-1,3-diyl) bis(3-oxoquinuclidinium) dibromide]",> 75,> 75,> 75,> 75,> 75,> 75,> 75,> 75,> 75,–
"O=C1C[N+]2(CCCC[N+]34CCC(CC3)C(=O)C4)CCC1CC2 [2(QO)4, 1,1′-(Butane-1,4-diyl) bis(3-oxoquinuclidinium) dibromide]",> 75,> 75,> 75,> 75,> 75,> 75,> 75,> 75,> 75,–
"O=C1C[N+]2(CCCCCC[N+]34CCC(CC3)C(=O)C4)CCC1CC2 [2(QO)6, 1,1′-(Hexane-1,6-diyl) bis(3-oxoquinuclidinium) dibromide]",> 75,> 75,> 75,> 75,> 75,> 75,> 75,> 75,> 75,–
"CCCCCCCCCCCC[N+](C)(C)Cc1ccccc1.[Br-] [BAB, benzyldodecyldimethylammonium bromide, reference compound]",–,–,–,–,–,–,–,50,–,"Minimum Inhibitory Concentrations (MIC) ([1]; Staphylococcus aureus ATCC 25923): 10 µM; Minimum Inhibitory Concentrations (MIC) ([2]; Staphylococcus aureus ATCC 33591): 25 µM; Minimum Inhibitory Concentrations (MIC) ([3]; Staphylococcus aureus Clinical/MRSA): 25 µM; Minimum Inhibitory Concentrations (MIC) ([6]; Enterococcus faecalis ATCC 29212): 15 µM; Minimum Inhibitory Concentrations (MIC) ([7]; Escherichia coli ATCC 25922): 63 µM; biofilm inhibition ([10]; S. aureus ATCC 25923, across all tested concentrations): > 74%; biofilm inhibition ([11]; 12.5 µg/mL): comparable values; biofilm inhibition ([11]; 25 µg/mL): 20%; biofilm inhibition ([11]; 50 µg/mL): remaining consistent; biofilm inhibition ([11]; 100 µg/mL): 44%; IC50 (HEK293 cells): 3 µM; IC50 (RPE1 cells): 0.82 µM"
"CO/N=C(\C(=O)N[C@@H]1C(=O)N2C(C(=O)O)=C(COC(C)=O)CS[C@H]12)c1csc(N)n1 [CFX, cefotaxime, reference compound]",–,–,–,–,–,–,–,–,–,"biofilm inhibition ([10]; S. aureus ATCC 25923, 50 µg/mL): 62%; biofilm inhibition ([11]; 12.5 µg/mL): similarly low values; inhibition at 25 µg/mL ([11]; Listeria monocytogenes, ATCC7644, 25 µg/mL, read-out: biofilm inhibition): 6%; inhibition at 50 µg/mL ([11]; Listeria monocytogenes, ATCC7644, 50 µg/mL, read-out: biofilm inhibition): > 20%; inhibition at 100 µg/mL ([11]; Listeria monocytogenes, ATCC7644, 100 µg/mL, read-out: biofilm inhibition): > 20%"
